ChEMBL document CHEMBL2413072, “Synthesis and in vitro anticancer studies of novel C-2 arylidene congeners of lantadenes” (2013)

Experiments:
Format in all cases: functional
BT-549 = assay: Growth inhibition of human BT549 cells assessed as cell growth at 10^-8 M by sulforhodamine B assay; details: read-out: Activity
CAKI-1 = assay: Growth inhibition of human CAKI-1 cells by sulforhodamine B assay
A498 [1] = assay: Growth inhibition of human A498 cells assessed as cell growth at 10^-4 M by sulforhodamine B assay; details: read-out: Activity
MDA-MB-468 = assay: Growth inhibition of human MDA-MB-468 cells assessed as cell growth at 10^-6 M by sulforhodamine B assay; details: read-out: Activity
SF-539 [2] = assay: Growth inhibition of human SF539 cells assessed as cell growth at 10^-8 M by sulforhodamine B assay; details: read-out: Activity
SF-539 [3] = assay: Growth inhibition of human SF539 cells by sulforhodamine B assay
786-0 = assay: Growth inhibition of human 786-0 cells assessed as cell growth at 10^-8 M by sulforhodamine B assay; details: read-out: Activity
HOP-62 = assay: Growth inhibition of human HOP62 cells assessed as cell growth at 10^-4 M by sulforhodamine B assay; details: read-out: Activity
COLO 205 = assay: Growth inhibition of human COLO205 cells assessed as cell growth at 10^-4 M by sulforhodamine B assay; details: read-out: Activity
RPMI-8226 [4] = assay: Growth inhibition of human RPMI8226 cells assessed as cell growth at 10^-7 M by sulforhodamine B assay; details: read-out: Activity
UO-31 = assay: Growth inhibition of human UO31 cells by sulforhodamine B assay
UACC-62 = assay: Growth inhibition of human UACC62 cells by sulforhodamine B assay
SNB-75 = assay: Growth inhibition of human SNB75 cells assessed as cell growth at 10^-6 M by sulforhodamine B assay; details: read-out: Activity
NCI-H460 = assay: Growth inhibition of human NCI-H460 cells assessed as cell growth at 10^-7 M by sulforhodamine B assay; details: read-out: Activity
HT-29 [5] = assay: Growth inhibition of human HT-29 cells by sulforhodamine B assay
PC-3 [6] = assay: Growth inhibition of human PC3 cells assessed as cell growth at 10^-7 M by sulforhodamine B assay; details: read-out: Activity
SK-OV-3 [7] = assay: Growth inhibition of human SKOV3 cells by sulforhodamine B assay
OVCAR-5 [8] = assay: Growth inhibition of human OVCAR5 cells assessed as cell growth at 10^-4 M by sulforhodamine B assay; details: read-out: Activity
SK-MEL-2 = assay: Growth inhibition of human SK-MEL-2 cells by sulforhodamine B assay
OVCAR-5 [9] = assay: Growth inhibition of human OVCAR5 cells assessed as cell growth at 10^-6 M by sulforhodamine B assay; details: read-out: Activity
SK-OV-3 [10] = assay: Growth inhibition of human SKOV3 cells assessed as cell growth at 10^-6 M by sulforhodamine B assay; details: read-out: Activity
NCI-H322M [11] = assay: Growth inhibition of human NCI-H322M cells assessed as cell growth at 10^-8 M by sulforhodamine B assay; details: read-out: Activity
RPMI-8226 [12] = assay: Growth inhibition of human RPMI8226 cells assessed as cell growth at 10^-4 M by sulforhodamine B assay; details: read-out: Activity
[13] = Growth inhibition of human Hs 578T cells assessed as cell growth at 10^-7 M by sulforhodamine B assay; details: read-out: Activity
LOX IMVI = assay: Growth inhibition of human LOXIMVI cells assessed as cell growth at 10^-8 M by sulforhodamine B assay; details: read-out: Activity
KM12 = assay: Growth inhibition of human KM12 cells assessed as cell growth at 10^-7 M by sulforhodamine B assay; details: read-out: Activity
NCI-H226 [14] = assay: Growth inhibition of human NCI-H226 cells assessed as cell growth at 10^-8 M by sulforhodamine B assay; details: read-out: Activity
SF-539 [15] = assay: Growth inhibition of human SF539 cells assessed as cell growth at 10^-7 M by sulforhodamine B assay; details: read-out: Activity
PC-3 [16] = assay: Growth inhibition of human PC3 cells by sulforhodamine B assay
DU-145 = assay: Growth inhibition of human DU145 cells assessed as cell growth at 10^-7 M by sulforhodamine B assay; details: read-out: Activity
NCI-H322M [17] = assay: Growth inhibition of human NCI-H322M cells assessed as cell growth at 10^-4 M by sulforhodamine B assay; details: read-out: Activity
NCI-H226 [18] = assay: Growth inhibition of human NCI-H226 cells by sulforhodamine B assay
HOP-92 = assay: Growth inhibition of human HOP92 cells assessed as cell growth at 10^-8 M by sulforhodamine B assay; details: read-out: Activity
M14 = assay: Growth inhibition of human M14 cells assessed as cell growth at 10^-8 M by sulforhodamine B assay; details: read-out: Activity
HT-29 [19] = assay: Growth inhibition of human HT-29 cells assessed as cell growth at 10^-4 M by sulforhodamine B assay; details: read-out: Activity
UACC-257 = assay: Growth inhibition of human UACC257 cells assessed as cell growth at 10^-4 M by sulforhodamine B assay; details: read-out: Activity
HCT-116 = assay: Growth inhibition of human HCT116 cells assessed as cell growth at 10^-4 M by sulforhodamine B assay; details: read-out: Activity
A498 [20] = assay: Growth inhibition of human A498 cells assessed as cell growth at 10^-7 M by sulforhodamine B assay; details: read-out: Activity
SK-MEL-5 = assay: Growth inhibition of human SK-MEL-5 cells assessed as cell growth at 10^-6 M by sulforhodamine B assay; details: read-out: Activity
[21] = read-out: LC50 (the source's name)
[22] = read-out: pLC50 (the source's name) (converted)

CC(C)=CC(=O)O[C@@H]1CC(C)(C)C[C@H]2C3=CC[C@@H]4[C@@]5(C)CC[C@H](O)C(C)(C)[C@@H]5CC[C@@]4(C)[C@]3(C)CC[C@@]12C(=O)O [Reduced Lantadene B]
growth at 0.01 µM (BT-549): 97% | GI50 (CAKI-1; read-out: GI50): 3.39 µM | CC50 (CAKI-1; [21]): > 100 µM | TGI (CAKI-1; read-out: TGI): 46.8 µM | GI50 (CAKI-1; read-out: pGI50 (converted)): 3.39 µM | CC50 (CAKI-1; [22]): > 100 µM | TGI (CAKI-1; read-out: pTGI (converted)): 46.8 µM | growth at 100 µM (A498 [1]): -90% | growth at 1 µM (MDA-MB-468): 77% | growth at 0.01 µM (SF-539 [2]): 96% | GI50 (SF-539 [3]; read-out: GI50): 8.94 µM | CC50 (SF-539 [3]; [21]): > 100 µM | TGI (SF-539 [3]; read-out: TGI): 36.2 µM | GI50 (SF-539 [3]; read-out: pGI50 (converted)): 8.91 µM | CC50 (SF-539 [3]; [22]): > 100 µM | TGI (SF-539 [3]; read-out: pTGI (converted)): 36.3 µM | growth at 0.01 µM (786-0): 97% | growth at 100 µM (HOP-62): -60% | growth at 100 µM (COLO 205): -52% | growth at 0.1 µM (RPMI-8226 [4]): 92% | GI50 (UO-31; read-out: GI50): 3.69 µM | CC50 (UO-31; [21]): 45.4 µM | TGI (UO-31; read-out: TGI): 15.5 µM | GI50 (UO-31; read-out: pGI50 (converted)): 3.72 µM | CC50 (UO-31; [22]): 45.7 µM | TGI (UO-31; read-out: pTGI (converted)): 15.5 µM | GI50 (UACC-62; read-out: GI50): 1.95 µM | CC50 (UACC-62; [21]): 25.2 µM | TGI (UACC-62; read-out: TGI): 5.48 µM | GI50 (UACC-62; read-out: pGI50 (converted)): 1.95 µM | CC50 (UACC-62; [22]): 25.1 µM | TGI (UACC-62; read-out: pTGI (converted)): 5.5 µM | growth at 1 µM (SNB-75): 85% | growth at 0.1 µM (NCI-H460): 100% | GI50 (HT-29 [5]; read-out: GI50): 4.24 µM | LC50 (50% cell kill) (HT-29 [5]; read-out: LC50): > 100 µM | TGI (HT-29 [5]; read-out: TGI): 27.1 µM | GI50 (HT-29 [5]; read-out: pGI50 (converted)): 4.27 µM | LC50 (50% cell kill) (HT-29 [5]; read-out: pLC50 (converted)): > 100 µM | TGI (HT-29 [5]; read-out: pTGI (converted)): 26.9 µM | growth at 0.1 µM (PC-3 [6]): 90% | GI50 (SK-OV-3 [7]; read-out: GI50): 12.8 µM | CC50 (SK-OV-3 [7]; [21]): 80.2 µM | TGI (SK-OV-3 [7]; read-out: TGI): 32 µM | GI50 (SK-OV-3 [7]; read-out: pGI50 (converted)): 12.9 µM | CC50 (SK-OV-3 [7]; [22]): 79.4 µM | TGI (SK-OV-3 [7]; read-out: pTGI (converted)): 32.4 µM | growth at 100 µM (OVCAR-5 [8]): -51% | GI50 (SK-MEL-2; read-out: GI50): 9.34 µM | CC50 (SK-MEL-2; [21]): 67 µM | TGI (SK-MEL-2; read-out: TGI): 25.4 µM | GI50 (SK-MEL-2; read-out: pGI50 (converted)): 9.33 µM | CC50 (SK-MEL-2; [22]): 67.6 µM | TGI (SK-MEL-2; read-out: pTGI (converted)): 25.7 µM | growth at 1 µM (OVCAR-5 [9]): 106% | growth at 1 µM (SK-OV-3 [10]): 104% | growth at 0.01 µM (NCI-H322M [11]): 90% | growth at 100 µM (RPMI-8226 [12]): -19% | growth at 0.1 µM [13]: 97% | growth at 0.01 µM (LOX IMVI): 98% | growth at 0.1 µM (KM12): 79% | growth at 0.01 µM (NCI-H226 [14]): 96% | growth at 0.1 µM (SF-539 [15]): 98% | GI50 (PC-3 [16]; read-out: GI50): 3.6 µM | CC50 (PC-3 [16]; [21]): 64 µM | TGI (PC-3 [16]; read-out: TGI): 21.9 µM | GI50 (PC-3 [16]; read-out: pGI50 (converted)): 3.63 µM | CC50 (PC-3 [16]; [22]): 64.6 µM | TGI (PC-3 [16]; read-out: pTGI (converted)): 21.9 µM | growth at 0.1 µM (DU-145): 100% | growth at 100 µM (NCI-H322M [17]): -70% | GI50 (NCI-H226 [18]; read-out: GI50): 5.09 µM | LC50 (NCI-H226 [18]; read-out: LC50): 86 µM | TGI (NCI-H226 [18]; read-out: TGI): 24.2 µM | GI50 (NCI-H226 [18]; read-out: pGI50 (converted)): 5.13 µM | LC50 (NCI-H226 [18]; read-out: pLC50 (converted)): 85.1 µM | TGI (NCI-H226 [18]; read-out: pTGI (converted)): 24 µM | growth at 0.01 µM (HOP-92): 91% | growth at 0.01 µM (M14): 94% | growth at 100 µM (HT-29 [19]): -36% | growth at 100 µM (UACC-257): -34% | growth at 100 µM (HCT-116): -80% | growth at 0.1 µM (A498 [20]): 85% | growth at 1 µM (SK-MEL-5): 77%
